Measured values taken from patent US8067454B2, “Thio-substituted Anthra [1, 2-d] imidazole- 6, 11-dione derivatives, preparation method and application thereof” (National Defense Medical Center, priority 2010, dated 2011).

What was measured:
HCC-2998 = assay: NCI 60-cell drug screen, Colon Cancer HCC-2998; format: cell-based, human; details: 1.00E−5 Molar
GBM8901 = assay: MTT assay, GBM8901 tumor cell; details: concentration 10 μM, tumor cell
786-0 = assay: NCI 60-cell drug screen, Renal Cancer 786-0; format: cell-based, human; details: 1.00E−5 Molar
PC-3 = assay: NCI 60-cell drug screen, Prostate Cancer PC-3; format: cell-based, human; details: 1.00E−5 Molar
ACHN = assay: NCI 60-cell drug screen, Renal Cancer ACHN; format: cell-based, human; details: 1.00E−5 Molar
SN12C = assay: NCI 60-cell drug screen, Renal Cancer SN12C; format: cell-based, human; details: 1.00E−5 Molar
UACC-257 = assay: NCI 60-cell drug screen, Melanoma UACC-257; format: cell-based, human; details: 1.00E−5 Molar
HCT-15 = assay: NCI 60-cell drug screen, Colon Cancer HCT-15; format: cell-based, human; details: 1.00E−5 Molar
MCF7 = assay: NCI 60-cell drug screen, Breast Cancer MCF7; format: cell-based, human; details: 1.00E−5 Molar
SK-MEL-2 = assay: NCI 60-cell drug screen, Melanoma SK-MEL-2; format: cell-based, human; details: 1.00E−5 Molar
SK-OV-3 = assay: NCI 60-cell drug screen, Ovarian Cancer SK-OV-3; format: cell-based, human; details: 1.00E−5 Molar
HOP-62 = assay: NCI 60-cell drug screen, Non-Small Cell Lung Cancer HOP-62; format: cell-based, human; details: 1.00E−5 Molar
SK-MEL-28 = assay: NCI 60-cell drug screen, Melanoma SK-MEL-28; format: cell-based, human; details: 1.00E−5 Molar
U251 = assay: NCI 60-cell drug screen, CNS Cancer U251; format: cell-based, human; details: 1.00E−5 Molar
OVCAR-8 = assay: NCI 60-cell drug screen, Ovarian Cancer OVCAR-8; format: cell-based, human; details: 1.00E−5 Molar
RPMI-8226 = assay: NCI 60-cell drug screen, Leukemia RPMI-8226; format: cell-based, human; details: 1.00E−5 Molar
UACC-62 = assay: NCI 60-cell drug screen, Melanoma UACC-62; format: cell-based, human; details: 1.00E−5 Molar
SNB-19 = assay: NCI 60-cell drug screen, CNS Cancer SNB-19; format: cell-based, human; details: 1.00E−5 Molar
SF-268 = assay: NCI 60-cell drug screen, CNS Cancer SF-268; format: cell-based, human; details: 1.00E−5 Molar
DU-145 = assay: NCI 60-cell drug screen, Prostate Cancer DU-145; format: cell-based, human; details: 1.00E−5 Molar
A549/ATCC = assay: NCI 60-cell drug screen, Non-Small Cell Lung Cancer A549/ATCC; format: cell-based, human; details: 1.00E−5 Molar
RXF 393 = assay: NCI 60-cell drug screen, Renal Cancer RXF 393; format: cell-based, human; details: 1.00E−5 Molar
NCI-H23 = assay: NCI 60-cell drug screen, Non-Small Cell Lung Cancer NCI-H23; format: cell-based, human; details: 1.00E−5 Molar
OVCAR-4 = assay: NCI 60-cell drug screen, Ovarian Cancer OVCAR-4; format: cell-based, human; details: 1.00E−5 Molar
T-47D = assay: NCI 60-cell drug screen, Breast Cancer T-47D; format: cell-based, human; details: 1.00E−5 Molar
NCI-H522 = assay: NCI 60-cell drug screen, Non-Small Cell Lung Cancer NCI-H522; format: cell-based, human; details: 1.00E−5 Molar
GBM8401 = assay: MTT assay, GBM8401 tumor cell; details: concentration 10 μM, tumor cell
HL-60(TB) = assay: NCI 60-cell drug screen, Leukemia HL-60(TB); format: cell-based, human; details: 1.00E−5 Molar
A498 = assay: NCI 60-cell drug screen, Renal Cancer A498; format: cell-based, human; details: 1.00E−5 Molar
MOLT-4 = assay: NCI 60-cell drug screen, Leukemia MOLT-4; format: cell-based, human; details: 1.00E−5 Molar
SF-295 = assay: NCI 60-cell drug screen, CNS Cancer SF-295; format: cell-based, human; details: 1.00E−5 Molar
SW-620 = assay: NCI 60-cell drug screen, Colon Cancer SW-620; format: cell-based, human; details: 1.00E−5 Molar
NCI/ADR-RES = assay: NCI 60-cell drug screen, Ovarian Cancer NCI/ADR-RES; format: cell-based, human; details: 1.00E−5 Molar
Procedure: In brief, cellular protein levels were determined after 48 hours of drug exposure by sulforhodamine B colorimetry. Through the use of a time 0 cell control, the cell growth can be determined for each cell line thus allowing calculations of the 50% growth inhibitory concentration (GI50), the total growth inhibition (TGI), and the 50% lethal concentration (LC50). Comparison to plates not exposed to drug permits determination of concentration and times of exposure conferring 50% net growth inhibition (GI50), TGI, and 50% cell kill (LC50).
From the data analysis it follows that approximately 95% of the actives (potent anticancer drugs) from the 60 cell line screen can be identified. By these criteria, 6 compounds (each with its certification number, refer to Table 2) of the invention were reported that having anticancer activity.
The screening system in United State National Cancer Institute (NCI) consists of 60 kinds of different human cancer cells, which can be used to assay the growth-inhibiting ability or cell toxicity of a compound against various cancer and tumor at a certain concentration.
NCI had selected 6 compounds f1-0, f1-1, f3-1, f1-11, f1-2 and f1-15 as test compounds (Table 2). Among these compounds, compound f1-1 was effective against renal cancer cell strain CAKI-1, and could achieve an inhibition effect on the growth of said cancer cell up to −8.01. Compound f1-11 could achieve inhibiting effects against leukemia cell line CCRF-CEM and RPMI-8226, up to −15.39 and −60.17, respectively. Compound f1-2 was effective against central nervous system cancer cell line SNB-75, and could achieve an effect of inhibiting said cancer cell growth up to −9.55. Compound f1-15 was effective against leukemia (blood cancer) cell line K-562, MOLT-4, and RPMI-8226, and could achieve effects of inhibiting said cancer cells growth up to −31.59, −2.90 and −13.69, respectively. Further, compound f1-15 was effective also against renal cancer cell line CAKI-1, and could achieve an effect of inhibiting said cancer cell growth up to −14.89.

M14 = assay: NCI 60-cell drug screen, Melanoma M14; format: cell-based, human; details: 1.00E−5 Molar
HOP-92 = assay: NCI 60-cell drug screen, Non-Small Cell Lung Cancer HOP-92; format: cell-based, human; details: 1.00E−5 Molar
UO-31 = assay: NCI 60-cell drug screen, Renal Cancer UO-31; format: cell-based, human; details: 1.00E−5 Molar
OVCAR-5 = assay: NCI 60-cell drug screen, Ovarian Cancer OVCAR-5; format: cell-based, human; details: 1.00E−5 Molar
MALME-3M = assay: NCI 60-cell drug screen, Melanoma MALME-3M; format: cell-based, human; details: 1.00E−5 Molar
LOX IMVI = assay: NCI 60-cell drug screen, Melanoma LOX IMVI; format: cell-based, human; details: 1.00E−5 Molar

| SMILES | Growth Percent, HCC-2998 (HCC-2998) [%] | Cell survival rate (%) GBM8901 (GBM8901) [%] | Growth Percent, 786-0 (786-0) [%] | Growth Percent, PC-3 (PC-3) [%] | Growth Percent, ACHN (ACHN) [%] | Growth Percent, SN12C (SN12C) [%] | Growth Percent, UACC-257 (UACC-257) [%] | Growth Percent, HCT-15 (HCT-15) [%] | Growth Percent, MCF7 (MCF7) [%] | Growth Percent, SK-MEL-2 (SK-MEL-2) [%] | Growth Percent, SK-OV-3 (SK-OV-3) [%] | Growth Percent, HOP-62 (HOP-62) [%] | Growth Percent, SK-MEL-28 (SK-MEL-28) [%] | Growth Percent, U251 (U251) [%] | Growth Percent, OVCAR-8 (OVCAR-8) [%] | Growth Percent, RPMI-8226 (RPMI-8226) [%] | Growth Percent, UACC-62 (UACC-62) [%] | Growth Percent, SNB-19 (SNB-19) [%] | Growth Percent, SF-268 (SF-268) [%] | Growth Percent, DU-145 (DU-145) [%] | further results |
| --- | --- | --- | --- | --- | --- | --- | --- | --- | --- | --- | --- | --- | --- | --- | --- | --- | --- | --- | --- | --- | --- |
| CN(C)CCCSc1nc2ccc3c(c2[nH]1)C(=O)c1ccccc1C3=O [f1-15, 2-(3-(dimethylamino)propylthio)-1H-anthra[1,2-d]imidazole-6,11-dione] | 72.67 | 63 ± 4 | 77.63 | 36.71 | 24.30 | 37.66 | 114.50 | 36.27 | 16.92 | 80.03 | 32.36 | 51.96 | 102.07 | 74.11 | 61.89 | −13.69 | 75.39 | 79.67 | 53.13 | 36.35 | Growth Percent, A549/ATCC (A549/ATCC): 51.59%; Growth Percent, RXF 393 (RXF 393): 38.40%; Growth Percent, NCI-H23 (NCI-H23): 53.83%; Growth Percent, OVCAR-4 (OVCAR-4): 29.72%; Growth Percent, T-47D (T-47D): 45.78%; Growth Percent, NCI-H522 (NCI-H522): 69.28%; Cell survival rate (%) GBM8401 (GBM8401): 8 ± 11%; Growth Percent, HL-60(TB) (HL-60(TB)): 12.74%; Growth Percent, A498 (A498): 76.16%; Growth Percent, MOLT-4 (MOLT-4): −2.90%; Growth Percent, SF-295 (SF-295): 76.03%; Growth Percent, SW-620 (SW-620): 26.35%; Growth Percent, NCI/ADR-RES (NCI/ADR-RES): 54.32%; Growth Percent, M14 (M14): 77.32%; Growth Percent, HOP-92 (HOP-92): 15.99%; Growth Percent, UO-31 (UO-31): 25.50%; Growth Percent, OVCAR-5 (OVCAR-5): 87.88%; Growth Percent, MALME-3M (MALME-3M): 88.23%; Growth Percent, LOX IMVI (LOX IMVI): 28.57% |
| CCSc1nc2ccc3c(c2[nH]1)C(=O)c1ccccc1C3=O [f1-1, 2-(Ethylthio)-1H-anthra[1,2-d]imidazole-6,11-dione] | 89.42 | 58 ± 7 | 85.38 | 53.79 | 37.57 | 67.91 | 111.80 | 32.29 | 43.81 | 81.65 | 24.72 | 96.59 | 97.72 | 65.03 | 96.82 | 28.52 | 47.64 | 87.90 | 75.67 | 64.51 | Growth Percent, A549/ATCC (A549/ATCC): 100.94%; Growth Percent, RXF 393 (RXF 393): 99.91%; Growth Percent, NCI-H23 (NCI-H23): 87.41%; Growth Percent, OVCAR-4 (OVCAR-4): 55.05%; Growth Percent, T-47D (T-47D): 30.78%; Growth Percent, NCI-H522 (NCI-H522): 78.60%; Cell survival rate (%) GBM8401 (GBM8401): 42 ± 20%; Growth Percent, HL-60(TB) (HL-60(TB)): 62.64%; Growth Percent, A498 (A498): 75.49%; Growth Percent, MOLT-4 (MOLT-4): 100.70%; Growth Percent, SF-295 (SF-295): 100.85%; Growth Percent, SW-620 (SW-620): 84.53%; Growth Percent, NCI/ADR-RES (NCI/ADR-RES): 85.72%; Growth Percent, M14 (M14): 67.07%; Growth Percent, HOP-92 (HOP-92): 75.35%; Growth Percent, UO-31 (UO-31): 49.19%; Growth Percent, OVCAR-5 (OVCAR-5): 85.38%; Growth Percent, MALME-3M (MALME-3M): 63.33%; Growth Percent, LOX IMVI (LOX IMVI): 36.72% |
| O=C1c2ccccc2C(=O)c2c1ccc1nc(S)[nH]c21 [f1-0, 2-Mercapto-1(3)H-anthra[1,2-d]imidazole-6,11-dione] | 113.65 | 78 ± 13 | 95.78 | 78.80 | 96.23 | 87.98 | 105.26 | 83.78 | 75.91 | 134.35 | 103.17 | 96.74 | 118.39 | 88.79 | 139.75 | 101.22 | 84.17 | 91.30 | 90.30 | 99.28 | Growth Percent, A549/ATCC (A549/ATCC): 118.18%; Growth Percent, RXF 393 (RXF 393): 141.66%; Growth Percent, NCI-H23 (NCI-H23): 113.34%; Growth Percent, OVCAR-4 (OVCAR-4): 91.57%; Growth Percent, T-47D (T-47D): 81.86%; Growth Percent, NCI-H522 (NCI-H522): 96.06%; Cell survival rate (%) GBM8401 (GBM8401): 86 ± 25%; Growth Percent, HL-60(TB) (HL-60(TB)): 97.58%; Growth Percent, A498 (A498): 94.31%; Growth Percent, MOLT-4 (MOLT-4): 108.60%; Growth Percent, SF-295 (SF-295): 118.09%; Growth Percent, SW-620 (SW-620): 97.56%; Growth Percent, NCI/ADR-RES (NCI/ADR-RES): 109.60%; Growth Percent, M14 (M14): 101.06%; Growth Percent, HOP-92 (HOP-92): 65.48%; Growth Percent, UO-31 (UO-31): 97.83%; Growth Percent, OVCAR-5 (OVCAR-5): 129.22%; Growth Percent, MALME-3M (MALME-3M): 87.50%; Growth Percent, LOX IMVI (LOX IMVI): 84.00% |
